Patent US6573275B1, “Bicyclic amines” (Syngenta Limited, priority 1995, dated 2003)

Tested on: peach aphid (Myzus persicae)
Assay: Insecticidal test against peach aphid, infested Chinese cabbage leaves sprayed
Assay type: in vivo
Settings: peach aphid (Myzus persicae) on Chinese cabbage leaves, sprayed with 500 ppm composition unless otherwise stated, mortality assessed after 3 days
Experimental: This Example illustrates the insecticidal properties of the compounds of Formula I. The activity of the compounds of Formula I was determined using a variety of pests. The pests were treated with a liquid composition containing 500 parts per million (ppm) by weight of the compound unless otherwise stated. The compositions were made by dissolving the compound in acetone and ethanol (50:50) mixture and diluting the solutions with water containing 0.05% by weight of a wetting agent sold under the trade name “SYNPERONIC” NP8 until the liquid composition contained the required concentration of the compound. “SYNPERONIC” is a Registered Trade Mark.
The test procedure adopted with regard to each pest was basically the same and comprised supporting a number of the pests on a medium which was usually a substrate, a host plant or a foodstuff on which the pests feed, and treating either or both the medium and the pests with the compositions. The mortality of the pests was then assessed at periods usually varying from two to five days after the treatment.
In this test Chinese cabbage leaves were infested with aphids, the infested leaves were sprayed with the test composition, and the mortality assessed after 3 days.

| Compound | Score (grading of mortality) |
| --- | --- |
| N#CC1(c2cncc(Cl)c2)CC2CCC(C1)N2Cc1c(F)c(F)c(F)c(F)c1F (stereo not drawn) [Compound 93, exo-3-(5-chloropyrid-3-yl)-endo-3-cyano-8-(pentafluorophenylmethyl)-8-azabicyclo[3.2.1]octane] | A (A indicates 80-100% mortality) |
| N#CC1(c2cncc(Cl)c2)CC2CCC(C1)N2c1ccc([N+](=O)[O-])cc1 (centres unmarked) [Compound 94] | C (C indicates less than 40% mortality) |
| CC(=O)N1C2CCC1CC(C#N)(c1cncc(Cl)c1)C2 (stereo not drawn) [Compound 95, exo-3-(5-chloropyrid-3-yl)-endo-3-cyano-8-acetyl-8-azabicyclo[3.2.1]octane] | A (A indicates 80-100% mortality) |
| N#CC1(c2cncc(Cl)c2)CC2CCC(C1)N2C(=O)C(F)(F)F (centres unmarked) [Compound 96] | A (A indicates 80-100% mortality) |
| N#CC1(c2cncc(Cl)c2)CC2CCC(C1)N2C(=O)c1ccc(Cl)cc1 (centres unmarked) [Compound 97] | C (C indicates less than 40% mortality) |
| N#CC1(c2cncc(Cl)c2)CC2CCC(C1)N2C(=O)c1ccc(F)cc1 (centres unmarked) [Compound 98] | A (A indicates 80-100% mortality) |
| N#CC1(c2cncc(Cl)c2)CC2CCC(C1)N2CCCF (centres unmarked) [Compound 99] | A (A indicates 80-100% mortality) |
| N#CC1(c2cncc(Cl)c2)CC2CCC(C1)N2Cc1ccc(C(F)(F)F)cc1C(F)(F)F (centres unmarked) [Compound 100] | A (A indicates 80-100% mortality) |
| N#CC1(c2cncc(Cl)c2)CC2CCC(C1)N2Cc1ccc(C(=O)O)cc1 (centres unmarked) [Compound 101] | A (A indicates 80-100% mortality) |
| CC=COc1cncc(C2(C#N)CC3CCC(C2)N3C)c1 (centres unmarked) [Compound 102] | A (A indicates 80-100% mortality) |
| N#CC1(c2cncc(Cl)c2)CC2CCC(C1)N2Cc1cccc(F)c1F (centres unmarked) [Compound 103] | A (A indicates 80-100% mortality) |
| N#CC1(c2cncc(Cl)c2)CC2CCC(C1)N2CCc1ccccc1 (stereo not drawn) [Compound 104, exo-3-(5-chloropyrid-3-yl)-endo-3-cyano-8-(2-phenylethyl)-8-azabicyclo[3.2.1]octane] | A (A indicates 80-100% mortality) |
| N#Cc1ccc(N2C3CCC2CC(C#N)(c2cncc(Cl)c2)C3)cc1 (centres unmarked) [Compound 105] | B (B indicates 40-79% mortality) |
| N#CC1(c2cncc(Cl)c2)CC2CCC(C1)N2CC=C(F)F (stereo not drawn) [Compound 106, exo-3-(5-chloropyrid-3-yl)-endo-3-cyano-8-(3,3-difluoroprop-2-en-1-yl)-8-azabicyclo[3.2.1]octane] | A (A indicates 80-100% mortality) |
| N#CC1(c2cncc(Cl)c2)CC2CCC(C1)N2CC(=O)O (centres unmarked) [Compound 107] | A (A indicates 80-100% mortality) |
| N#CC1(c2cncc(Cl)c2)CC2CCC(C1)N2Cc1cc(Br)cc(Br)c1 (centres unmarked) [Compound 108] | A (A indicates 80-100% mortality) |
| N#CC1(c2cncc(Cl)c2)CC2CCC(C1)N2Cc1ccc(F)c(Cl)c1 (stereo not drawn) [Compound 109, exo-3-(5-chloropyrid-3-yl)-endo-3-cyano-8-(3-chloro-4-fluorobenzyl)-8-azabicyclo[3.2.1]octane] | A (A indicates 80-100% mortality) |
| N#CC1(c2cncc(Cl)c2)CC2CCC(C1)N2C=O (stereo not drawn) [Compound 110, exo-3-(5-chloropyrid-3-yl)-endo-3-cyano-8-formyl-8-azabicyclo[3.2.1]octane] | A (A indicates 80-100% mortality) |
| CC(C)OC(=O)N1C2CCC1CC(C#N)(c1cncc(Cl)c1)C2 (centres unmarked) [Compound 111] | A (A indicates 80-100% mortality) |
| N#CC1(c2cncc(Cl)c2)CC2CCC(C1)N2S(=O)(=O)c1ccccc1 (centres unmarked) [Compound 112] | B (B indicates 40-79% mortality) |
| N#CC1(c2cncc(Cl)c2)CC2CCC(C1)N2Cc1c(F)cc(F)cc1F (centres unmarked) [Compound 113] | A (A indicates 80-100% mortality) |
| N#CC1(c2cncc(Cl)c2)CC2CCC(C1)N2Cc1c(F)ccc(F)c1F (centres unmarked) [Compound 114] | A (A indicates 80-100% mortality) |
| N#CC(c1ccccc1)N1C2CCC1CC(C#N)(c1cncc(Cl)c1)C2 (stereo not drawn) [Compound 115, exo-3-(5-chloropyrid-3-yl)-endo-3-cyano-8-(a-cyanobenzyl)-8-azabicyclo[3.2.1]octane] | A (A indicates 80-100% mortality) |
| COC(=O)N1C2CCC1CC(C#N)(c1cncc(Cl)c1)C2 (centres unmarked) [Compound 116] | A (A indicates 80-100% mortality) |

| Compound | Score (grading of mortality) |
| --- | --- |
| N#CC1(c2cncc(Cl)c2)CC2CCC(C1)N2Cc1ccccn1 (stereo not drawn) [Compound 117, exo-3-(5-chloropyrid-3-yl)-endo-3-cyano-8-(pyrid-2-ylmethyl)-8-azabicyclo[3.2.1]octane] | A (A indicates 80-100% mortality) |
| N#CC1(c2cncc(Cl)c2)CC2CCC(C1)N2Cc1cccnc1 (centres unmarked) [Compound 118] | A (A indicates 80-100% mortality) |
| N#CC1(c2cncc(Cl)c2)CC2CCC(C1)N2Cc1ccncc1 (centres unmarked) [Compound 119] | A (A indicates 80-100% mortality) |
| N#CC1(c2ccccn2)CC2CCC(C1)N2CCF (centres unmarked) [Compound 120] | A (A indicates 80-100% mortality) |
| C[C@H](c1ccccc1)N1C2CCC1CC(C#N)(c1cncc(Cl)c1)C2 (stereo partly drawn) [Compound 121, (R)-exo-3-(5-chloropyrid-3-yl)-endo-3-cyano-8-(1-phenylethyl)-8-azabicyclo[3.2.1]octane] | A (A indicates 80-100% mortality) |
| C[C@@H](c1ccccc1)N1C2CCC1CC(C#N)(c1cncc(Cl)c1)C2 (some centres unmarked) [Compound 122] | A (A indicates 80-100% mortality) |
| Cc1nc(CN2C3CCC2CC(C#N)(c2cncc(Cl)c2)C3)cs1 (stereo not drawn) [Compound 123, exo-3-(5-chloropyrid-3-yl)-endo-3-cyano-8-((2-methylthiazol-4-yl)methyl)-8-azabicyclo[3.2.1]octane] | A (A indicates 80-100% mortality) |
| Cc1noc(C)c1CN1C2CCC1CC(C#N)(c1cncc(Cl)c1)C2 (stereo not drawn) [Compound 124, exo-3-(5-chloropyrid-3-yl)-endo-3-cyano-8-((3,5-dimethylisoxazol-4-yl)methyl)-8-azabicyclo[3.2.1]octane] | A (A indicates 80-100% mortality) |
| N#CC1(c2cncc(Cl)c2)CC2CCC(C1)N2Cc1ccc(Cl)s1 (centres unmarked) [Compound 125] | A (A indicates 80-100% mortality) |
| N#CC1(c2cncc(Cl)c2)CC2CCC(C1)N2c1ccc(C(F)(F)F)cn1 (centres unmarked) [Compound 126] | C (C indicates less than 40% mortality) |
| N#CC1(c2cncc(Cl)c2)CC2CCC(C1)N2c1cccc(F)n1 (stereo not drawn) [Compound 128, exo-3-(5-chloropyrid-3-yl)-endo-3-cyano-8-(6-fluoropyrid-2-yl)-8-azabicyclo[3.2.1]octane] | A (A indicates 80-100% mortality) |
| N#CC1(c2cncc(Cl)c2)CC2CCC(C1)N2c1ccc(F)cc1 (centres unmarked) [Compound 129] | A (A indicates 80-100% mortality) |
| N#CC1(c2cncc(Cl)c2)CC2CCC(C1)N2CC(F)(F)C(F)(F)F (centres unmarked) [Compound 130] | A (A indicates 80-100% mortality) |
| N#CC1(c2cncc(Cl)c2)CC2CCC(C1)N2CC(F)(F)C(F)F (centres unmarked) [Compound 131] | A (A indicates 80-100% mortality) |
| N#CC1(c2cncc(Cl)c2)CC2CCC(C1)N2CC(F)(F)C(F)(F)C(F)(F)F (centres unmarked) [Compound 132] | A (A indicates 80-100% mortality) |
| N#CC1(c2cncc(Cl)c2)CC2CCC(C1)N2CC(F)(F)C(F)(F)C(F)(F)C(F)F (centres unmarked) [Compound 133] | A (A indicates 80-100% mortality) |
| CN1C2CCC1CC(C#N)(c1cncc(N)c1)C2 (stereo not drawn) [Compound 134, exo-3-(5-aminopyrid-3-yl)-endo-3-cyano-8-methyl-8-azabicyclo[3.2.1]octane] | A (A indicates 80-100% mortality) |
| N#CC1(c2cncc(Cl)c2)CC2CCC(C1)N2C(C(N)=O)c1ccccc1 (stereo not drawn) [Compound 135, exo-3-(5-chloropyrid-3-yl)-endo-3-cyano-8-(a-carbamylbenzyl)-8-azabicyclo[3.2.1]octane] | A (A indicates 80-100% mortality) |
| N#CC1(c2cncc(Cl)c2)CC2CCC(C1)N2c1cccc(C(F)(F)F)n1 (centres unmarked) [Compound 136] | C (C indicates less than 40% mortality) |
| N#CC1(c2cncc(Cl)c2)CC2CCC(C1)N2c1cccc(Cl)n1 (centres unmarked) [Compound 137] | C (C indicates less than 40% mortality) |
| N#CC1(c2cncc(Cl)c2)CC2CCC(C1)N2C(=S)S (stereo not drawn) [Compound 138, exo-3-(5-chloropyrid-3-yl)-endo-3-cyano-8-(mercaptothiocarbonyl)-8-azabicyclo[3.2.1]octane] | A (A indicates 80-100% mortality) |
| CC(C)(C)N1C2CCC1CC(C#N)(c1cncc(Cl)c1)C2 (stereo not drawn) [Compound 139, exo-3-(5-chloropyrid-3-yl)-endo-3-cyano-8-(tert-butyl)-8-azabicyclo[3.2.1]octane] | A (A indicates 80-100% mortality) |
| CCOC(=O)CCN1C2CCC1CC(C#N)(c1cncc(Cl)c1)C2 (stereo not drawn) [Compound 140, exo-3-(5-chloropyrid-3-yl)-endo-3-cyano-8-(2-(ethoxycarbonyl)ethyl)-8-azabicyclo[3.2.1]octane] | A (A indicates 80-100% mortality) |
